Assay results reported in ChEMBL document CHEMBL5252616, “Design, synthesis and biological evaluation of the tumor hypoxia-activated PROTACs bearing caged CRBN E3 ligase ligands” (Bioorg Med Chem, 2023).
Activity calls are given as the source filed them. The rule behind the calls is not given here.

Assays:
[1] = tested on: Protein cereblon/Epidermal growth factor receptor (Homo sapiens), P00533+Q96SW2 [UNDEFINED MUTATION]; experiment: Protac activity at CRBN/EGFR deletion19 mutant in human PC-9 cells assessed as induction of EGFR degradation at 0.001 to 1 uM and measured after 24 hrs under normoxia condition by Western blot analysis; type: cell-based; conditions: dose 0.001-1 µM
[2] = tested on: Protein cereblon/Epidermal growth factor receptor (Homo sapiens), P00533+Q96SW2 [UNDEFINED MUTATION]; experiment: Protac activity at CRBN/EGFR deletion19 mutant in human PC-9 cells assessed as induction of EGFR degradation at 0.001 to 1 uM and measured after 24 hrs under hypoxia condition by Western blot analysis; type: cell-based; conditions: dose 0.001-1 µM
PC-9 [3] = experiment: Antitumor activity against human PC-9 cells assessed as inhibition of cell viability incubated for 72 hrs under normoxia condition by CCK8 assay; type: functional, cell-based; conditions: PC-9, 72 h
PC-9 [4] = experiment: Antitumor activity against human PC-9 cells assessed as inhibition of cell viability incubated for 72 hrs under hypoxia condition by CCK8 assay; type: functional, cell-based; conditions: PC-9, 72 h
PC-9 [5] = experiment: Inhibition of cell migration in human PC-9 cells at 100 nM incubated for 24 hrs under normoxia condition by imaging analysis; type: functional, cell-based
PC-9 [6] = experiment: Inhibition of cell migration in human PC-9 cells at 100 nM incubated for 24 hrs under hypoxia condition by imaging analysis; type: functional, cell-based
PC-9 [7] = experiment: Induction of apoptosis in human PC-9 cells assessed as necrotic cells at 0.1 uM incubated for 72 hrs under normoxia condition by Annexin V-FITC/ PI staining based flow cytometry (Rvb= 0.93%); type: functional
PC-9 [8] = experiment: Induction of apoptosis in human PC-9 cells assessed as late apoptotic cells at 0.1 uM incubated for 72 hrs under normoxia condition by Annexin V-FITC/ PI staining based flow cytometry (Rvb= 3.72%); type: functional
PC-9 [9] = experiment: Induction of apoptosis in human PC-9 cells assessed as early apoptotic cells at 0.1 uM incubated for 72 hrs under normoxia condition by Annexin V-FITC/ PI staining based flow cytometry (Rvb= 0.82%); type: functional
PC-9 [10] = experiment: Induction of apoptosis in human PC-9 cells assessed as live cells at 0.1 uM incubated for 72 hrs under normoxia condition by Annexin V-FITC/ PI staining based flow cytometry (Rvb= 94.53%); type: functional
PC-9 [11] = experiment: Induction of apoptosis in human PC-9 cells assessed as necrotic cells at 0.1 uM incubated for 72 hrs under hypoxia condition by Annexin V-FITC/ PI staining based flow cytometry (Rvb= 2.81%); type: functional
PC-9 [12] = experiment: Induction of apoptosis in human PC-9 cells assessed as late apoptotic cells at 0.1 uM incubated for 72 hrs under hypoxia condition by Annexin V-FITC/ PI staining based flow cytometry (Rvb= 4.73%); type: functional
PC-9 [13] = experiment: Induction of apoptosis in human PC-9 cells assessed as early apoptotic cells at 0.1 uM incubated for 72 hrs under hypoxia condition by Annexin V-FITC/ PI staining based flow cytometry (Rvb= 4.27%); type: functional
PC-9 [14] = experiment: Induction of apoptosis in human PC-9 cells assessed as live cells at 0.1 uM incubated for 72 hrs under hypoxia condition by Annexin V-FITC/ PI staining based flow cytometry (Rvb= 88.19%); type: functional
PC-9 [15] = experiment: Induction of apoptosis in human PC-9 cells assessed as apoptotic cells at 0.1 uM incubated for 72 hrs under normoxia condition by Annexin V-FITC/ PI staining based flow cytometry (Rvb= 4.54%); type: functional
PC-9 [16] = experiment: Induction of apoptosis in human PC-9 cells assessed as apoptotic cells at 0.1 uM incubated for 72 hrs under hypoxia condition by Annexin V-FITC/ PI staining based flow cytometry (Rvb= 9%); type: functional
[17] = Prodrug conversion in hypoxia condition assessed as nitroreductase mediated drug degradation by measuring parent compound remaining in presence of NADPH as cofactor at 1 uM and measured after 60 mins by UPLC-MS/MS analysis; type: ADME; conditions: isolated protein, 1 h
[18] = Prodrug conversion in hypoxia condition assessed as nitroreductase mediated active drug N-(4-((3-chloro-4-fluorophenyl)amino)-7-(((S)-tetrahydrofuran-3-yl)oxy)quinazolin-6-yl)-3-(2-(2-(2-((2-(2,6-dioxopiperidin-3-yl)-1,3-dioxoisoindolin-4-yl)oxy)ethoxy)ethoxy)ethoxy)propanamide formation in presence of NADPH as cofactor at 1 uM and measured after 60 mins by UPLC-MS/MS analysis; type: ADME; conditions: isolated protein, 1 h
[19] = tested on: Protein cereblon/Epidermal growth factor receptor (Homo sapiens), P00533+Q96SW2 [UNDEFINED MUTATION]; experiment: Protac activity at CRBN/EGFR deletion19 mutant in human PC-9 cells assessed as induction of EGFR degradation at 0.001 to 0.1 uM and measured after 24 hrs under normoxia condition by Western blot analysis; type: cell-based; conditions: dose 0.001-0.1 µM
[20] = tested on: Protein cereblon/Epidermal growth factor receptor (Homo sapiens), P00533+Q96SW2 [UNDEFINED MUTATION]; experiment: Protac activity at CRBN/EGFR deletion19 mutant in human PC-9 cells assessed as induction of EGFR degradation at 0.001 to 0.1 uM and measured after 24 hrs under hypoxia condition by Western blot analysis; type: cell-based; conditions: dose 0.001-0.1 µM
[21] = tested on: Protein cereblon/Epidermal growth factor receptor (Homo sapiens), P00533+Q96SW2 [UNDEFINED MUTATION]; experiment: Protac activity at CRBN/EGFR deletion19 mutant in human PC-9 cells assessed as induction of EGFR degradation at 0.5 to 1 uM and measured after 24 hrs under normoxia condition by Western blot analysis; type: cell-based; conditions: dose 0.5-1 µM
[22] = tested on: Protein cereblon/Epidermal growth factor receptor (Homo sapiens), P00533+Q96SW2 [UNDEFINED MUTATION]; experiment: Protac activity at CRBN/EGFR deletion19 mutant in human PC-9 cells assessed as induction of EGFR degradation at 0.5 to 1 uM and measured after 24 hrs under hypoxia condition by Western blot analysis; type: cell-based; conditions: dose 0.5-1 µM
[23] = tested on: Protein cereblon/Epidermal growth factor receptor (Homo sapiens), P00533+Q96SW2 [UNDEFINED MUTATION]; experiment: Protac activity at CRBN/EGFR deletion19 mutant in human PC-9 cells assessed as induction of EGFR degradation at 100 nM and measured after 24 hrs under normoxia condition by Western blot analysis; type: cell-based

Sequence of Protein cereblon/Epidermal growth factor receptor (Homo sapiens), P00533+Q96SW2 [UNDEFINED MUTATION] (P00533 whole entry, looked up, stated change not applied): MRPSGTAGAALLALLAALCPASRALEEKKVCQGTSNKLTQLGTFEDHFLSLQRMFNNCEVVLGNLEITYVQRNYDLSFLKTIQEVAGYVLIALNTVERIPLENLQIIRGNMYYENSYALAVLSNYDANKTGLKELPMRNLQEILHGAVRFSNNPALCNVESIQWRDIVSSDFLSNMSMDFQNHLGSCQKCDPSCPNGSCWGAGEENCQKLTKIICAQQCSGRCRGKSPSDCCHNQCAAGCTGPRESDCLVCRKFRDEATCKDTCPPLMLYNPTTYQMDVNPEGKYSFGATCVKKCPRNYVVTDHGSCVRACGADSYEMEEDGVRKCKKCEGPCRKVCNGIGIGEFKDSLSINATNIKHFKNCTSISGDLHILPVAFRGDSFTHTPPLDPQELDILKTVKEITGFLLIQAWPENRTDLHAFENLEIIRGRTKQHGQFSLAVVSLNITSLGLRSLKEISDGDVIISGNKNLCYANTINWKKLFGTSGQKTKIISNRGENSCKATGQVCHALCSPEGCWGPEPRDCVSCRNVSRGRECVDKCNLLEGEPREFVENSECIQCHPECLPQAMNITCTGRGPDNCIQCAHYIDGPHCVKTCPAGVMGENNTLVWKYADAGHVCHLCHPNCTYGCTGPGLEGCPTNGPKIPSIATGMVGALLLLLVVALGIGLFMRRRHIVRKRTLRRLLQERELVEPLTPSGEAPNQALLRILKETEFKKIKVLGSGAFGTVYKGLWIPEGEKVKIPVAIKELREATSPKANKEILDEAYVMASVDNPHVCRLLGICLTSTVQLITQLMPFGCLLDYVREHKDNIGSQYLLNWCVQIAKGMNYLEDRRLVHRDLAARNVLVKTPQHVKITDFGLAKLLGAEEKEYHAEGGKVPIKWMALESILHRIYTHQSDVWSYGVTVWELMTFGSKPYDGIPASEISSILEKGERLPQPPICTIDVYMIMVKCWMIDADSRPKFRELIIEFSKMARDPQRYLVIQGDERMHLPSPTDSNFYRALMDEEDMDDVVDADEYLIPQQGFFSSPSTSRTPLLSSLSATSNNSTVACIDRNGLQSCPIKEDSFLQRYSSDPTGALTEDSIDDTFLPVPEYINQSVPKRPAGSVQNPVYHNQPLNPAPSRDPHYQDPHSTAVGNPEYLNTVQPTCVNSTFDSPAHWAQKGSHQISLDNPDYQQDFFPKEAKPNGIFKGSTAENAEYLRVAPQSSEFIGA
Sequence of Protein cereblon/Epidermal growth factor receptor (Homo sapiens), P00533+Q96SW2 [UNDEFINED MUTATION] (Q96SW2 whole entry, looked up, stated change not applied): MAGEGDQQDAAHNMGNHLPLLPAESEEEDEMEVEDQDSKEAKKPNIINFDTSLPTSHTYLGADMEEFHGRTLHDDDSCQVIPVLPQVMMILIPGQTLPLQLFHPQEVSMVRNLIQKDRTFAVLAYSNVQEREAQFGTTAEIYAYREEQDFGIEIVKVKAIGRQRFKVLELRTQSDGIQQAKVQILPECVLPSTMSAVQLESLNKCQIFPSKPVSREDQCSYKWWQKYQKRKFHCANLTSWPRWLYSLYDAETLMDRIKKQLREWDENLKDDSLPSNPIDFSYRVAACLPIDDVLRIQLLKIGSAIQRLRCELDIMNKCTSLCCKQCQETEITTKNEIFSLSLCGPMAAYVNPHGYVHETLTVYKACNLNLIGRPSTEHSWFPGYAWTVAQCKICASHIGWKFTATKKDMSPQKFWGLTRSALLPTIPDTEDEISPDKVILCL

Compound	IC50 (PC-9 [3]) [nM]	IC50 (PC-9 [4]) [nM]	inhibition (PC-9 [5])	inhibition (PC-9 [6])	Activity (PC-9 [7]) [%]	Activity (PC-9 [8]) [%]	Activity (PC-9 [9]) [%]	Activity (PC-9 [10]) [%]	Activity (PC-9 [11]) [%]	Activity (PC-9 [12]) [%]	Activity (PC-9 [13]) [%]	Activity (PC-9 [14]) [%]	Activity (PC-9 [15]) [%]	Activity (PC-9 [16]) [%]	Stability [17]	Drug metabolism [18]	also measured
Cn1c(CN2C(=O)CCC(N3C(=O)c4cccc(OCCOCCOCCOCCC(=O)Nc5cc6c(Nc7ccc(F)c(Cl)c7)ncnc6cc5O[C@H]5CCOC5)c4C3=O)C2=O)cnc1[N+](=O)[O-] (stereo partly specified)	1100	610	inactive	Active	2.18	11.21	10.9	75.71	2.83	17.28	35.08	44.8	22.11	52.36	Unstable	Metabolite_Detected	Activity [1]: inactive; Activity [2]: Active
O=C(CCOCCOCCOCCOc1cccc2c1C(=O)N(C1CCC(=O)N(Cc3ccc([N+](=O)[O-])cc3)C1=O)C2=O)Nc1cc2c(Nc3ccc(F)c(Cl)c3)ncnc2cc1O[C@H]1CCOC1 (stereo partly specified)	1920	1090	inactive	Active	1.1	2.98	3.28	92.63	1.89	7.96	9.37	80.78	6.26	17.33	Unstable	Metabolite_Detected	Activity [19]: inactive; Activity [20]: Active; Activity [21]: Active; Activity [22]: Active
O=C1CCC(N2C(=O)c3cccc(OCCOCCOCCOCCC(=O)Nc4cc5c(Nc6ccc(F)c(Cl)c6)ncnc5cc4O[C@H]4CCOC4)c3C2=O)C(=O)N1 (stereo partly specified)	1300	1300															Activity [23]: Active
